The source of these data is PubChem BioAssay AID504313 (Emory University Molecular Libraries Screening Center, 2011).

The term IC50 denotes the midpoint of a concentration-inhibition curve.

Structures are written as SMILES. The source made the active and inactive calls. How the calls were made is not given here.

The target of this test is X-box-binding protein 1 (Homo sapiens) (UniProt P17861). Kind of test: inhibitors of XBP1 reporter signal, dose response, counter-screen, cell-based (AID 504313).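 Further: CHO cells carrying an XBP1 reporter stimulated with tunicamycin; potency is for inhibition of the tunicamycin-induced reporter signal.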 To be noted: XBP1 reporter cell assay, percent of control.

As for `O=C(/C=C/c1cccc(C(F)(F)F)c1)Nc1cccc(C(F)(F)F)c1`, the IC50 result was “inactive”.

In the case of `CC(C)Oc1ccc(CNC(=S)N/N=C/c2ccc([N+](=O)[O-])cc2)cc1`, the IC50 was > 10 µM (inactive).

As to `Cc1ccc2nc(NC(=O)CSCC(=O)OCC(=O)c3ccc(Br)cc3)sc2c1`, the half-maximal inhibitory concentration (IC50) was 3.51 µM.

For `CCOc1cc(/C=N/NC(=O)Cc2ccc(C(F)(F)F)cc2[N+](=O)[O-])c(Br)cc1OC`, the IC50 entry is “inactive”.

In the case of `COc1ccc(NS(=O)(=O)c2ccc(O)c(NC(=O)c3cc4c(C)nn(-c5ccc(F)cc5)c4s3)c2)cc1`, the IC50 was > 10 µM (inactive).

`Cc1ccc(S(=O)(=O)CC#CCOC(=O)c2ccc([N+](=O)[O-])cc2)cc1`: the IC50 entry is “inactive”.

For the compound `C=CCc1cccc(/C=N/NC(=O)CCCNc2ccc(C)cc2)c1O`, the IC50 result was “inactive”.

On to `CCOc1ccc2nc(NC(=O)CSc3nc4c(c(=O)n(C)c(=O)n4C)n3C(C)C)sc2c1`, for which the IC50 is > 10 µM (inactive).

On to `OC(CNCCc1ccc(C(F)(F)F)cc1)COc1cccc2ccccc12` (stereo not drawn), for which the IC50 is < 0.16 µM (inactive).

Regarding `CCOc1ccc(-c2nc(CSCC(=O)NCc3ccco3)c(C)o2)cc1`, the IC50 is under 0.16 µM.

Regarding `CC1(c2ccccc2)CC(C)(C)n2c(O)c(C3=NC(=S)NC3=O)c3cccc1c32` (stereo not drawn), the IC50 was > 10 µM (inactive).

`C/C(=C\c1ccco1)C1C(C#N)=C(N)Oc2n[nH]c(-c3ccc(C)cc3)c21` (stereo not drawn): the IC50 is > 10 µM (inactive).

As to `CCOC(=O)c1cnc(-n2nc(C)cc2C)nc1NC1CCCCC1`, the IC50 entry is “inactive”.

Consider `Cc1cc(C(=O)CCl)c(C)n1-c1cccc(S(=O)(=O)N2CCOCC2)c1`, for which the IC50 is > 10 µM (inactive).

`Cc1cc(Cl)ccc1OCc1n[nH]c(=S)n1C1CCCCC1`: the IC50 result is “inactive”.

Consider `CCOC(=O)c1c(C(C)(C)C)oc2ccc(O)cc12`, for which the IC50 was > 10 µM (inactive).

On to `CCN(CC)CCn1c(SCC(=O)Nc2ccc(F)cc2)nc2c(sc3ccccc32)c1=O`, for which the IC50 was > 10 µM (inactive).

As for `CCCc1cc(C(=O)Cc2ccc(F)cc2)c(O)cc1O`, the IC50 result is “inactive”.

For `C=C1C(=O)O[C@@H]2C[C@@H](C)[C@@H]3C=CC(=O)[C@@]3(C)[C@@H](O)[C@H]12`, the IC50 is 2.43 µM.

Regarding `Cc1ccc(N2C(=O)NC(=O)/C(=C\C=C\c3ccco3)C2=O)cc1C`, the IC50 was > 10 µM (inactive).

`CN(C(=O)CCl)C1CCCc2ccccc21` (stereo not drawn): the IC50 entry was “inactive”.

Consider `Cc1cc(C)n(-c2nc(Nc3ccccc3C(F)(F)F)nc(-n3nc(C)cc3C)n2)n1`, for which the IC50 result is “inactive”.

Regarding `COc1ccc(/C=C2/C(=O)ON=C2c2ccccc2)cc1OC`, the IC50 is > 10 µM (inactive).

As to `Cc1ccc(-c2[nH]ncc2/C=N/n2c(COc3ccccc3)nc3ccccc3c2=O)cc1`, the IC50 result was “inactive”.

On to `CC1CCC(C(C)C)C(OC(=O)COC(=O)c2cc(O)ccc2N)C1` (stereo not drawn), for which the IC50 entry was “inactive”.

As for `O=Nc1ccc(O)c2ncccc12`, the IC50 is 5.08 µM.

`Cc1ccccc1Oc1cc(-n2ncc(Cl)c(Cl)c2=O)ncn1`: the IC50 was 1.75 µM.

Turning to `C=CCn1c(CCNC(=O)c2ccc(Cl)c(Cl)c2)nnc1SCCOc1ccc(OC)cc1`, the IC50 was > 10 µM (inactive).

As to `NC(=O)CC(NC(=O)Cc1cccc2ccccc12)c1ccc(NCc2ccccc2)c([N+](=O)[O-])c1` (stereo not drawn), the IC50 was > 10 µM (inactive).

For the compound `CCc1ccc2c(c1)C(c1ccc([N+](=O)[O-])cc1)=NNC(c1ccc(C)cc1)=N2`, the IC50 was > 10 µM (inactive).

In the case of `CN(CCCC[C@H](CNCc1ccc(-c2ccccc2)cc1)N1C[C@H](c2ccccc2)N(CCc2ccc(Cl)c(Cl)c2)C(=O)C1=O)Cc1ccc(-c2ccccc2)cc1`, the IC50 entry is “inactive”.

In the case of `COc1cccc(-c2nnc(NC(=O)c3ccc(S(=O)(=O)N(CC(C)C)CC(C)C)cc3)o2)c1`, the IC50 entry was “inactive”.

In the case of `O=C(Nc1ccccc1NC(=O)NC1CCCCC1)NC1CCCCC1`, the IC50 entry is “inactive”.

Turning to `Nc1c(C(=O)Nc2nc3ccccc3s2)sc2nc(-c3cccs3)ccc12`, the IC50 result is “inactive”.

Consider `CC(C)c1ccc(-c2cc(C(=O)N3N=C(C(F)F)CC3(O)C(F)F)c3ccccc3n2)cc1` (stereo not drawn), for which the half-maximal inhibitory concentration (IC50) is 5.02 µM.

As for `COc1ccc(Cn2c(SCc3cc(C)ccc3C)nc3cc(OC)c(OC)cc3c2=N)cc1`, the IC50 entry was “inactive”.

On to `CC(C)(C)c1ccc(OCCNC(=S)Nc2ccccc2)cc1`, for which the IC50 result is “inactive”.

In the case of `Cc1ccc2[nH]c3c(c2c1)CN(C(=O)CN1CCN(c2cccc(C)c2C)CC1)CC3`, the IC50 is > 10 µM (inactive).

On to `CCc1ccc(/C=C2\SC(=S)N(CCCC(=O)Nc3ccccn3)C2=O)cc1`, for which the IC50 is under 0.16 µM.

Turning to `Cc1ccc(Cn2c(SCC(=O)Nc3cc(C)on3)nc3ccccc3c2=O)cc1`, the IC50 was > 10 µM (inactive).

With `NC(N)=N/N=C/c1cn(-c2ccccc2)nc1-c1cccs1`, the IC50 was > 10 µM (inactive).

On to `CCCOC(=O)c1ccc(Oc2c(-c3ccc(OCC)cc3O)n[nH]c2C)cc1`, for which the IC50 entry was “inactive”.

Take `O=C1c2ccccc2-c2onc3ccc(Oc4ccccc4)c1c23`: the IC50 entry was “inactive”.

`COc1cc2c(cc1OC)C(c1ccccc1)N(C(=O)CCl)CC2` (stereo not drawn): the IC50 entry was “inactive”.

Consider `CCOC(=O)/C=C/S(=O)(=O)c1ccc(NC(C)=O)cc1`, for which the IC50 entry was “inactive”.

Regarding `CCOc1cccc(CN2CCN(c3cccc(C(F)(F)F)c3)CC2)c1O`, the IC50 is > 10 µM (inactive).

Take `CC1=NNC(=O)/C1=C\c1cn(-c2ccccc2)nc1-c1ccc(F)cc1`: the IC50 entry is “inactive”.

On to `Cc1cc(C2=NNC(=NC3CC3)SC2)c(C)n1-c1ccccc1F`, for which the IC50 is < 0.16 µM (inactive).

As for `Fc1cccc(-c2nnn3c2nc(Cl)c2ccccc23)c1`, the IC50 entry is “inactive”.

Take `Cc1ccc(NN2C(=O)C=C(c3ccc(Cl)cc3)C2=O)cc1`: the IC50 result was “inactive”.

As for `CCOc1cc(/C=N/NC(=O)COc2cccc(C)c2)ccc1OC(=O)c1cccs1`, the IC50 is > 10 µM (inactive).

For the compound `O=c1c2ccccc2nc2n1CCN2Cc1ccc(Cl)cc1`, the IC50 was > 10 µM (inactive).

For the compound `Cc1nn(CCC#N)c2nc(-c3ccccc3)cc(C(F)(F)F)c12`, the IC50 result is “inactive”.

For `C/C(=N\OCc1cccc(C(=O)O)c1)c1ccc(Cl)cc1`, the IC50 entry is “inactive”.

In the case of `COCCn1cnc2c(c1=O)c1nc3ccccc3nc1n2/N=C/c1cccc(OC)c1`, the IC50 result was “inactive”.

Take `N#Cc1nccnc1S(=O)(=O)c1cccs1`: the IC50 result is “inactive”.

As for `Oc1cccc(-c2nc3c4c(ncn3n2)-c2ccccc2CC42CCCC2)c1`, the IC50 was > 10 µM (inactive).

As for `CCOc1ccc2nc(NC(=O)CSc3nnnn3C3CCCCC3)sc2c1`, the IC50 was > 10 µM (inactive).

Regarding `COc1ccc(-c2nn(-c3ccccc3)cc2/C=N/N2C(=O)CSC2=S)cc1`, the IC50 was > 10 µM (inactive).

Take `Cc1ccc(NC(=O)c2nc[nH]c2C(=O)N[C@@H](C)C(=O)OC(C)(C)C)cc1`: the IC50 was 4.14 µM.

For `Cc1ccc(CNCc2cc3c(C(C)(C)C)nn(-c4ccccc4)c3[nH]c2=O)cc1`, the IC50 entry is “inactive”.

Regarding `CCc1ccc(OCC(=O)NC(NC(=S)Nc2ccc(C)cc2C)C(Cl)(Cl)Cl)cc1` (stereo not drawn), the IC50 result was “inactive”.

For the compound `CCN1/C(=C/c2ccc3cc(C)ccc3[n+]2C)Sc2ccc3sccc3c21`, the IC50 was 2.28 µM.

For `O=C(CCl)Nc1ccc(Sc2ccc(NC(=O)CCl)cc2)cc1`, the IC50 is 4.37 µM.

For `O=C(Nc1cc(N2CCOCC2)ncn1)NC1(C(F)(F)F)Oc2ccc(Cl)cc2O1` (stereo not drawn), the IC50 was > 10 µM (inactive).

Regarding `Nc1ccc2oc(-c3cc(Br)ccc3Cl)nc2c1`, the half-maximal inhibitory concentration (IC50) is 0.39 µM.

For `COc1ccc(-c2nn(-c3ccccc3)cc2/C=N/NC(=O)c2ccc(Br)o2)cc1`, the IC50 result is “inactive”.

As for `S=C(NCCc1ccc(Cl)cc1)Nc1ccc(Cl)cc1Cl`, the IC50 is > 10 µM (inactive).

Turning to `Cc1cc(C)cc(NC(=O)/C(C#N)=C/c2cn(CC(=O)NCc3ccco3)c3ccccc23)c1`, the half-maximal inhibitory concentration (IC50) was 4.94 µM.

On to `CCCCCCNC(=O)CC(c1ccccc1)c1cc(Br)ccc1O` (stereo not drawn), for which the IC50 entry was “inactive”.

Regarding `FC(F)(F)c1ccc(/C=N/NC(=S)NC2CCCCC2)cc1`, the IC50 was > 10 µM (inactive).

Consider `COc1ccc(OCc2cccc(C(=O)Nn3cc([N+](=O)[O-])cn3)c2)cc1`, for which the IC50 was 0.33 µM.

In the case of `CCOc1ccc(N2C(=O)/C(=C\c3ccc(O)c(OC)c3)S(=O)(=O)C2c2cccc([N+](=O)[O-])c2)cc1` (stereo not drawn), the IC50 was > 10 µM (inactive).

`N#C/C(=C\c1ccc([N+](=O)[O-])o1)c1nc2ccccc2[nH]1`: the IC50 was 4.83 µM.

In the case of `CC(C)COc1ccc(/C(=N/O)c2ccccc2)cc1`, the IC50 entry was “inactive”.

`CC1C/C(=C/c2ccccn2)C(=O)/C(=C/c2ccccn2)C1` (stereo not drawn): the half-maximal inhibitory concentration (IC50) was 2.68 µM.

Regarding `O=C1c2ccccc2C(=O)C1c1nccc2ccccc12`, the IC50 entry was “inactive”.

For the compound `CN1CCN(CC(=O)N2CCn3c4c(c5cc(C6CCCCC6)ccc53)CCCC42)CC1` (stereo not drawn), the IC50 was > 10 µM (inactive).

For `COc1ccc(N2C(=O)CC(Sc3nnnn3-c3ccc(F)cc3)C2=O)cc1` (stereo not drawn), the IC50 was > 10 µM (inactive).

For `Cc1cc(Cl)ccc1OCC(=O)N[C@@H](Cc1ccccc1)c1nc2ccccc2[nH]1`, the IC50 is > 10 µM (inactive).

In the case of `CCCCCc1c(C)nc(NCc2ccccc2)[nH]c1=O`, the IC50 was > 10 µM (inactive).

In the case of `Clc1ccc2c(N/N=C/c3ccc(Br)cc3)ccnc2c1`, the IC50 is > 10 µM (inactive).

As for `CCC(Cc1ccccc1)n1c(=S)[nH]c2ccccc2c1=O` (stereo not drawn), the IC50 was > 10 µM (inactive).

Turning to `CN1CC(c2ccccc2)C2(SC(=S)N(Cc3ccco3)C2=O)C12C(=O)Nc1ccccc12` (stereo not drawn), the IC50 was > 10 µM (inactive).

Regarding `Cc1cccc(/C=C/C(=O)c2cc(Br)ccc(=O)c2O)c1`, the IC50 is > 10 µM (inactive).

Turning to `C/C=C/Cn1c(SCCCc2ccccc2)nc2c1c(=O)[nH]c(=O)n2C`, the IC50 is > 10 µM (inactive).

Turning to `COc1cc(/C=N/O)cc(Br)c1OCc1cccc(Cl)c1`, the IC50 entry was “inactive”.

Take `CCCCCCCCCCCCCCCC[n+]1ccc(/C=N/O)cc1`: the IC50 result was “inactive”.
